Test results reported in ChEMBL document CHEMBL3232730, “Design, synthesis and bioevaluation of N-trisubstituted pyrimidine derivatives as potent aurora A kinase inhibitors” (Eur J Med Chem, 2014).

Experiments:
[1] = biological target: T1, Aurora kinase A (Homo sapiens, UniProt O14965); experiment: Inhibition of Aurora A (unknown origin) using FAM-labeled peptide as substrate preincubated for 10 mins followed by substrate addition measured after 60 mins
T1 sequence (O14965 whole entry): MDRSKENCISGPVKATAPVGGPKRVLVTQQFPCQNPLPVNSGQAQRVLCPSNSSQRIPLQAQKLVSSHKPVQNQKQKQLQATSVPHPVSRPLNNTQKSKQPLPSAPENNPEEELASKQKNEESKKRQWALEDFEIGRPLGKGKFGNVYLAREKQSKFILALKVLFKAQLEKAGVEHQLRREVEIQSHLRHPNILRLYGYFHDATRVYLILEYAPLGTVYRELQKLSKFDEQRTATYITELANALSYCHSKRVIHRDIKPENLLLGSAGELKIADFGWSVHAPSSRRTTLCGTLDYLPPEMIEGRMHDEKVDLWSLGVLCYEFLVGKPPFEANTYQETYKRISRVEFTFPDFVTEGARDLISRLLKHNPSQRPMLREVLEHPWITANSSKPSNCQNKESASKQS

[2] = test system: DU-145; experiment: Antiproliferative activity against human DU145 cells assessed as cell viability after 72 hrs by CCK8 assay; format: functional, cell-based; settings: Homo sapiens, DU-145, 72 h; read-out: IC50
[3] = test system: MDA-MB-231; experiment: Antiproliferative activity against human MDA-MB-231 cells assessed as cell viability after 72 hrs by CCK8 assay; format: functional, cell-based; settings: Homo sapiens, MDA-MB-231, 72 h; read-out: IC50
[4] = test system: A549; experiment: Antiproliferative activity against human A549 cells assessed as cell viability after 72 hrs by CCK8 assay; format: functional, cell-based; settings: A549, 72 h
[5] = test system: PC-3; experiment: Antiproliferative activity against human PC3 cells assessed as cell viability after 72 hrs by CCK8 assay; format: functional, cell-based; settings: Homo sapiens, PC-3, 72 h; read-out: IC50
[6] = test system: HL-60; experiment: Antiproliferative activity against human HL60 cells assessed as cell viability after 72 hrs by CCK8 assay; format: functional, cell-based; settings: Homo sapiens, HL-60, 72 h; read-out: IC50
[7] = test system: K562; experiment: Antiproliferative activity against human K562 cells assessed as cell viability after 72 hrs by CCK8 assay; format: functional, cell-based; settings: Homo sapiens, K562, 72 h; read-out: IC50
[8] = test system: NCI-N87; experiment: Antiproliferative activity against human NCI-N87 cells assessed as cell viability after 72 hrs by CCK8 assay; format: functional, cell-based; settings: Homo sapiens, NCI-N87, 72 h; read-out: IC50
[9] = test system: A-431; experiment: Antiproliferative activity against human A431 cells assessed as cell viability after 72 hrs by CCK8 assay; format: functional, cell-based; settings: Homo sapiens, A-431, 72 h; read-out: IC50
[10] = test system: MCF7; experiment: Antiproliferative activity against human MCF7 cells assessed as cell viability after 72 hrs by CCK8 assay; format: functional, cell-based; settings: Homo sapiens, MCF7, 72 h; read-out: IC50
[11] = test system: HCT-116; experiment: Antiproliferative activity against human HCT116 cells assessed as cell viability after 72 hrs by CCK8 assay; format: functional, cell-based; settings: Homo sapiens, HCT-116, 72 h; read-out: IC50
[12] = Antiproliferative activity against human PANC1 cells assessed as cell viability after 72 hrs by CCK8 assay; format: functional, cell-based; settings: PANC-1, 72 h
[13] = test system: U-937; experiment: Antiproliferative activity against human U937 cells assessed as cell viability after 72 hrs by CCK8 assay; format: functional, cell-based; settings: Homo sapiens, U-937, 72 h; read-out: IC50
[14] = Antiproliferative activity against human SKBR3 cells assessed as cell viability after 72 hrs by CCK8 assay; format: functional, cell-based, SK-BR-3; settings: Homo sapiens, SK-BR-3, 72 h; read-out: IC50
[15] = test system: HeLa; experiment: Antiproliferative activity against human HeLa cells assessed as cell viability after 72 hrs by CCK8 assay; format: functional, cell-based; settings: Homo sapiens, HeLa, 72 h; read-out: IC50
[16] = Antiproliferative activity against human MOLT4 cells assessed as cell viability after 72 hrs by CCK8 assay; format: functional, cell-based, MOLT-4; settings: Homo sapiens, MOLT-4, 72 h; read-out: IC50
[17] = Cell cycle arrest in human CNE2 cells assessed as accumulation at G1 phase at 1 uM after 24 hrs by propidium iodide staining-based flow cytometric analysis (reference value: 52.5%); format: functional; settings: CNE-2
[18] = Cell cycle arrest in human CNE2 cells assessed as accumulation at polyploid period at 1 uM after 24 hrs by propidium iodide staining-based flow cytometric analysis (reference value: […]); format: functional; settings: CNE-2
[19] = Cell cycle arrest in human CNE2 cells assessed as accumulation at S phase at 1 uM after 24 hrs by propidium iodide staining-based flow cytometric analysis (reference value: 14.7%); format: functional; settings: CNE-2
[20] = Cell cycle arrest in human CNE2 cells assessed as accumulation at G2/M phase at 1 uM after 24 hrs by propidium iodide staining-based flow cytometric analysis (reference value: 38.2%); format: functional; settings: CNE-2

Row | SMILES | IC50 [1] | IC50 [2] | IC50 [3] | IC50 [4] | IC50 [5] | IC50 [6] | IC50 [7] | IC50 [8] | IC50 [9] | IC50 [10] | IC50 [11] | IC50 [12] | IC50 [13] | IC50 [14] | IC50 [15] | IC50 [16] | also measured
1 | CNC(=O)c1ccc(Nc2nc(Nc3cc(C)[nH]n3)cc(N3CCN(C)CC3)n2)cc1 | 101 nM | – | – | – | – | – | – | – | – | – | – | – | – | – | – | – | –
2 | COC(=O)c1ccc(CNc2nc(Nc3cc(C)[nH]n3)cc(N3CCOCC3)n2)cc1 | 97 nM | – | – | – | – | – | – | – | – | – | – | – | – | – | – | – | –
3 | COC(=O)c1ccc(Nc2nc(Nc3cc(C)[nH]n3)cc(N3CCN(S(C)(=O)=O)CC3)n2)cc1 | 34 nM | 791 nM | 716 nM | 1730 nM | 2060 nM | 604 nM | 556 nM | 10900 nM | 1610 nM | 1990 nM | 1240 nM | 1220 nM | 233 nM | 5850 nM | 1700 nM | 215 nM | –
4 | Cc1cc(Nc2cc(N3CCN(C)CC3)nc(Nc3ccc([N+](=O)[O-])cc3)n2)n[nH]1 | 12 nM | 1200 nM | 84.4 nM | 723 nM | 1090 nM | 69.8 nM | 137 nM | 3880 nM | 150 nM | 424 nM | 1630 nM | 442 nM | 43.3 nM | 437 nM | 331 nM | 18.1 nM | –
5 | COC(=O)c1ccc(Nc2nc(Nc3cc(C)[nH]n3)cc(N3CCN(C)CC3)n2)cc1Cl | 7.7 nM | 900 nM | 124 nM | 1590 nM | 1380 nM | 129 nM | 137 nM | 3620 nM | 83.3 nM | 813 nM | 1590 nM | 508 nM | 55 nM | 2160 nM | 322 nM | 42.9 nM | –
6 | COC(=O)c1ccc(Nc2nc(Nc3cc(C)[nH]n3)cc(N3C[C@@H](C)O[C@@H](C)C3)n2)cc1 | 113 nM | – | – | – | – | – | – | – | – | – | – | – | – | – | – | – | –
7 | COC(=O)c1ccc(Nc2nc(Nc3cc(C)[nH]n3)cc(N3CCNCC3)n2)cc1 | 135 nM | – | – | – | – | – | – | – | – | – | – | – | – | – | – | – | –
8 | Cc1cc(Nc2cc(N3CCN(C)CC3)nc(Nc3ccc(C#N)cc3)n2)n[nH]1 | 8 nM | 1270 nM | 75.7 nM | 785 nM | 977 nM | 21.8 nM | 58.1 nM | 5780 nM | 140 nM | 372 nM | 650 nM | 435 nM | 9.03 nM | 883 nM | 331 nM | 13.6 nM | –
9 | Cc1cc(Nc2cc(N3CCN(C)CC3)nc(Nc3ccc(N4CCOCC4)cc3)n2)n[nH]1 | 112 nM | – | – | – | – | – | – | – | – | – | – | – | – | – | – | – | –
10 | Cc1cc(Nc2cc(N3CCN(C)CC3)nc(Nc3ccc(N4CC(=O)N(C5CC5)CC4=O)cc3)n2)n[nH]1 | 549 nM | – | – | – | – | – | – | – | – | – | – | – | – | – | – | – | –
11 | Cc1cc(Nc2cc(N3CCN(C)CC3)nc(Nc3ccccc3Cl)n2)n[nH]1 | 147 nM | – | – | – | – | – | – | – | – | – | – | – | – | – | – | – | –
12 | COC(=O)c1ccc(CNc2nc(Nc3cc(C)[nH]n3)cc(N3CCN(C)CC3)n2)cc1 | 127 nM | – | – | – | – | – | – | – | – | – | – | – | – | – | – | – | Activity [17]: 55.4%; Activity [18]: 3%; Activity [19]: 6.2%; Activity [20]: 35.3%
